Residues, ends and D or L forms follow the SMILES beside them.
Assays:
Assay type in all cases: cell-based, human
uPA = experiment: Casein-plasminogen zymography of conditioned media, uPA production; conditions: for uPA production: compared to control containing no peptide
Description: (§1) To assess whether the peptide SEQ ID NO.1 impacted MMP-2, MMP-9 and uPA production Zymography was used.
(§2) Zymography is a technique for studying hydrolytic enzymes on the basis of substrate degradation. The in-gel zymography hydrolytic enzymes are separated by their molecular weights and detected by their ability to degrade a substrate. To detect the activity of MMP-2 and MMP-9 in various cell lines, conditioned media were collected in 3 independent experiments and analysed by gelatin zymography to quantify the level of gelatin digestion, which reflects MMP-2 and MMP-9 activity and production. Casein-Plasminogen zymography was conducted to determine the activity level of uPA in the conditioned medium from various cell lines. Active uPA converts plasminogen into plasmin which then digests casein, thus clear bands where digestion of casein have occurred indirectly represent uPA activity.
(§3) The effect of the peptides on matrix protease production was tested using in-gel zymography. If the substrate included in the gel is gelatin, the enzymes detected are gelatinases: MMP-2 and MMP-9 (the latter is often of low abundance). If the gel contains casein and plasminogen, the enzymes tested are urokinase plasminogen activators (uPA); uPA is a therapeutic target in GBM.
(§4) An equal amount of protein from each sample was mixed with 5 μL of Laemmli buffer (0.01% Bromophenol Blue (W/V), 5% SDS (W/V), 22% glycerol (V/V), 14% 0.5 M Tris pH 6.8 (V/V)) and loaded onto a 10% polyacrylamide gel co-polymerized with 1 mg/ml of gelatin, and electrophoresed at 120 V for 2 hours on ice. The gel was incubated in […] solution (Triton X-100 2.5% (V/V), 1 M Tris pH 7.5 5% (V/V), 0.5 M CaCl2 1% (W/V) at room temperature overnight on an orbital shaker. The gel was incubated in a second solution for 3 hours at 37° C. The gel was then stained with Coomassie blue solution (Coomassie blue 0.25%, methanol 45%, acetic acid 10%) and destained in methanol 25% (V/V), acetic acid 10% (V/V) destaining solution until clear bands against the dark background appeared around 72 kDa and 95 kDa, representing MMP-2 and MMP-9 activity, respectively. Clear bands around 50 kDa appeared against the dark background representing uPA activity. The gels were scanned, and uPA, MMP-2 and MMP-9 were quantified by densitometry using NIH Image J software.
(§5) SEQ ID NO.1 was compared to a control containing no peptide to evaluate whether the peptide can reduce the production of matrix proteinases. […] This could be confirmed using a MMP-9 quantification kit, and altered production by a transcriptional mechanism can be unveiled using qRT-PCR.

Snail-2 mRNA = experiment: Real time RT-PCR, Snail-2 mRNA expression
Description: The real-time reverse transcription polymerase chain reaction (RT-PCR) uses fluorescent reporter molecules to monitor the production of amplification products during each cycle of the PCR reaction. This combines the nucleic acid amplification and detection steps into one homogeneous assay and use of appropriate chemistries and data analysis eliminates the need for Southern blotting or DNA sequencing for amplicon identification. Its simplicity, specificity and sensitivity, together with its potential for high throughput and the ongoing introduction of new chemistries, more reliable instrumentation and improved protocols, has made real-time RT-PCR the benchmark technology for the detection and/or comparison of RNA levels.’
In order to detect and quantify the expression of specific genes at mRNA level, real-time reverse transcriptase polymerase chain reaction (Real time RT-PCR) was performed. Total RNA of samples was isolated and purified using the PureLink® RNA Mini Kit (Life technologies). The concentration of total RNA was detected by NanoDrop 2000 Spectrophotometer (Thermo Scientific). The total RNA (2000 ng) was reverse transcribed using the High-Capacity cDNA Reverse Transcription Kit (Applied Biosystems™).
The primers of target genes were TaqMan™ Gene Expression Assay for human PLAU (Hs01547054_m1), MMP-2 (Hs01548727_m1), MMP-9 (Hs00957562_m1), Snail-1 (Hs00195591_m1), Snail-2 (Hs00161904_m1), N-cadherin (Hs00983056_m1) and Twist (Hs01675818_s1). Relative quantification was done by reference to 18S ribosomal RNA (18S rRNA) and analysed using the comparative critical threshold (Ct) method
The mRNA expression of MMPs was measured using qRT-PCR. This was tested three independent times; the results are shown in Tables 9, 10 and 11 for U251, U87 cells and O81024 cells respectively. Results are reported as percent of the control cells (no treatment). Both MMP-2 and uPA were decreased in U251 by SEQ ID NO.1.
Epithelial-mesenchymal transition (EMT) is the process by which epithelial cells acquire a migratory (metastatic) phenotype and so EMT is associated with cancer metastasis, cancer cell stemness, chemoresistance and immune resistance. Therefore, the determination of the mRNA expression of EMT markers is a valuable tool to evaluate invasion potential of cancer cells.
The ‘Snail’ superfamily is involved in cell differentiation and survival, two processes central in cancer research. Snail-1 has a pivotal role in the regulation of epithelial-mesenchymal transition (EMT) and Snail-1 expression is associated with poor prognosis in metastatic cancer, and tumours with elevated Snail-1 expression are harder to treat. […]

MMP-9 = experiment: Gelatin zymography of conditioned media, MMP-9 production; conditions: compared to control containing no peptide
Description: as §1, §2, §3, §4
as §5, with “proteinases. A reduction in the production of matrix proteinases may be anticipated to result in comparatively less degradation of the extra-cellular matrix and so this could be one pathway by which the invasion potential could be reduced.” for “proteinases.”

CC(C)C[C@@H]1NC(=O)[C@H](C)NC(=O)[C@@H](NC(=O)[C@@H]2CCCN2C(=O)[C@@H](N)CC(C)C)CSSC(C)(C)CNC(=O)CC[C@@H](C(=O)N[C@@H](CCCNC(=N)N)C(N)=O)NC(=O)[C@H](CC(=O)O)NC(=O)[C@H](CC(N)=O)NC1=O [SEQ ID NO: 1, Leu-Pro-c(SSA*-Ala-Leu-Asn-Asp-Glu)-Arg-NH2] (HELM PEPTIDE1{L.P.C.A.L.N.D.E.R.[am]}|CHEM1{[CC(C)(CN[*:2])S[*:1]]}$PEPTIDE1,CHEM1,3:R3-1:R1|PEPTIDE1,CHEM1,8:R3-1:R2$$$V2.0; N-terminus assumed)
uPA production (uPA; 081024 cells): 96.43 ± 16.6
uPA production (uPA; U87 cells): 89.03 ± 5.98
uPA production (uPA; U251 cells): 79.92 ± 8.86
production of uPA (overall, in words) (uPA; overall, all cell lines, cell-conditioned media): did not decrease
mRNA expression, Snail-2 (Snail-2 mRNA; 081024 cells, baseline expression level = 1): 1.01
mRNA expression, Snail-2 (Snail-2 mRNA; U87 cells, baseline expression level = 1): 0.94
mRNA expression, Snail-2 (Snail-2 mRNA; U251 cells, relative to control (no treatment)): 0.75
mRNA expression, Snail-2 (in words) (Snail-2 mRNA; cell line not specified): non-statistical decrease in expression
metalloprotease production, MMP-9 (MMP-9; 081024 cells): 98.96
metalloprotease production, MMP-9 (MMP-9; U87 cells, listed as SEQ ID NO. 1): 58.61
metalloprotease production, MMP-9 (MMP-9; U87 cells, listed as SEQ ID NO.1): decreased production
metalloprotease production, MMP-9 (MMP-9; U251 cells, listed as SEQ ID NO. 1): 63.4
metalloprotease production, MMP-9 (MMP-9; U251 cells, listed as SEQ ID NO.1): decreased production

— patent publication US20240059740A1, “CYCLIC PEPTIDES AND USES THEREOF” (PRE[…] INC., priority 2020, published 2024)
